In data set [1] the test system is Trypanosoma rhodesiense. As to conditions: Kinnamon et al.; peanut oil vehicle; cited from earlier work.
In data set [2] the test system is Trypanosoma rhodesiense. Kind of data set: 30-day survival and cure of Trypanosoma rhodesiense-infected mice treated with cisplatin. The data set is classed as in vivo. As to conditions: for cure, survival and damage on concurrent treatment: hydrated, trypanosome-infected mice, cisplatin and disulfiram or diethyl dithiocarbamate. On the procedure: Laboratory animals of diverse sorts have been employed in studies with trypanosomes. […] This method has been reported in detail: L. Rane, D. S. Rane, and K. E. Kinnamon, Am. J. Trop. Med. Hyg., 25, 395-400 (1976).
(§1) Anti-trypanosomal activity reported in this invention was determined according to the procedure outlined in the article of L. Rane, et al entitled "Screening Large Numbers of Compounds in a Model Based on Mortality of Trypanosoma rhodesiense Infected Mice," The American Journal of Tropical Medicine and Hygiene, Volume 25, No. 3, pages 395-400 ([…]). To summarize, however, experiments were conducted with the Wellcome CT strain of Trypanosoma rhodesiense originally isolated in 1934. The test system is patterned after the one developed and employed in testing of compounds for activity against Plasmodium berghei malaria [see Osdene, et al, New Series of Potential Antimalarial Agents, J. Med. Chem., 10, 431-434 (1967)]. The test system is based on comparisons of responses to test compounds by ICR/HA Swiss mice infected with the strain as expressed in mean survival times compared with mean survival times of untreated controls.
Test mice (of similar age were females and 21 to 25 grams in weight) received an intraperitoneal injection of 0.5 ml of a 1:50,000 dilution of heparinized heart blood drawn from donor mice infected with Trypanosoma rhodesiense 3 days earlier.
Deaths prior to the fourth day (when untreated controls begin to die) were regarded as not related to the infection and were scored as "toxic deaths." Treated animals were kept under observation for 30 days. Parasitemias were monitored by thick blood film smears (taken from tail veins of the mice) every 2 days for the 30-day course of the experiment. Survivors at the end of 30 days were considered cured. […] In calculating mean survival times, toxic deaths and 30 day survivors were not included.
(§2) All groups included 10 mice except where indicated. Therapy was 3 mg/kg
trypanosomes and subsequently given intraperitoneally for number of days
indicated in first column. Disulfiram (250 mg/kgorally) was given exactly
physiologic saline given subcutaneously four times per day. Survival is
given as % survival 30 days following initial therapy.

Data set [3] can be described thus: Histopathology of mice treated with cisplatin. It is filed as in vivo. The source says: Thus, histopathologic studies were requisite.
Two mice from each of these groups were necropsied at various times following cisplatin treatment. […] Tissues were fixed in 10% neutral buffered formalin, imbedded in paraffin, sectioned to 6-8μ and stained with hematoxylin and eosin.

Data set [4] can be described thus: 30-day survival of uninfected (healthy) mice treated with cisplatin, with or without hydration and disulfiram. It is filed as in vivo. On the procedure:
Ten animals were used in each of three test procedures for the three regimens of drug dosing. The test procedures included: no hydration of mice; hydration of mice; and hydration plus disulfiram administration to the animals.
as §2
indicated. Disulfiram (250 mg/kgorally) was given exactly four hours
Hydration was 3 ml of physiologic saline
given subcutaneously four times per day. Survival is given as % survival
30 days following initial therapy.
^a Average survival from four experiments with 10 mice per experiment

The subject of data set [5] is Trypanosoma rhodesiense. As to the kind of experiment: Parasitemia in infected mice, monitored by thick blood film smears. The data set is classed as in vivo. On the procedure: as §1
By using a standard inoculum of 1×10^6 trypanosomes, it was possible to produce a uniform disease fatal to 100% of untreated animals within four to six days, with a mean survival time of 4.45±0.24 days. Test mice (of similar age were females and 21 to 25 grams in weight) received an intraperitoneal injection of 0.5 ml of a 1:50,000 dilution of heparinized heart blood drawn from donor mice infected with Trypanosoma rhodesiense 3 days earlier.
Deaths prior to the fourth day (when untreated controls begin to die) were regarded as not related to the infection and were scored as "toxic deaths." Treated animals were kept under observation for 30 days. Parasitemias were monitored by thick blood film smears (taken from tail veins of the mice) every 2 days for the 30-day course of the experiment. Survivors at the end of 30 days were considered cured. An increase of 100% in mean survival time over control animals was considered as a minimum effective response. In calculating mean survival times, toxic deaths and 30 day survivors were not included.
The therapeutic regimen was that described in Examples 1 through 3.

In data set [6] the test system is Trypanosoma rhodesiense. As to the kind of experiment: Subinoculation of tissues (blood, heart, brain) of cured mice into healthy recipient mice. The data set is classed as in vivo, Trypanosoma rhodesiense in mice. As to conditions: donors: cisplatin with hydration plus disulfiram. The source says: The considerable and complex nature of problems in various developing countries of tropical Africa have been worsened by the increasing incidents of trypanosomiasis. Drugs for the management of this highly fatal infection have been generally inadequate or/and highly toxic to the victim. The present invention relates to a novel means for alleviating the toxic effects of an agent useful in the treatment of highly fatal trypanosome infections in animals. […] However, cures have been achieved safely by concurrent hydration of the animals and oral dosing with disulfiram. This procedure was firmly established as affording parasitologic cures of the experimental animals by subinoculation of tissues (blood, brain, heart) into recipient mice from mice cured of trypanosomiasis in accordance with the method of this invention.
Some animals suffered relapses 6 to 14 days after the last doses. […] All survivors at 30 days were sacrificed, and tissues (blood; heart; brain) subinoculated into healthy mice. […] Thus, no latent trypanosomes had survived the therapy.

[7] abbreviates: no hydration, 3 mg/kg/day i.p., 7 days.
Where [8] appears, read: with hydration, 3 mg/kg/day i.p., 7 days.
Setting [9] is: mice treated with cisplatin alone.
The mark [10] stands for this setting: hydration + disulfiram, cisplatin 3 mg/kg/day, 6 days.
Where [11] appears, read: with hydration, 3 mg/kg/day, 6 days.

Entries after “also recorded” stand apart in the source; their conditions may differ.

Turning to `N.N.[Cl][Pt][Cl]` [Cisplatin, cis-diamminedichloroplatinum (II)], in the data set on Trypanosoma rhodesiense [1], the “anti-trypanosomal effects in prior work” value was “anti-trypanosomal effects at dose levels which were unsuitably toxic to the test animals”. For the same compound, in the data set on Trypanosoma rhodesiense [2] (3 mg/kg/day for 7 days), the “curative effects on Trypanosoma rhodesiense infections” value is “does exert curative effects”. The “cure, survival and damage on concurrent treatment” value (“cure, survival and damage” for short) in the data set with Trypanosoma rhodesiense [2] was “effected cures of the infection with very good survival and little damage to test animals”. For the same compound, the “30-Day survival of trypanosome-infected mice” value turned out to be 62.5% with Trypanosoma rhodesiense [2] (hydration + disulfiram (250 mg/kg orally), cisplatin 3 mg/kg/day i.p., 6 days, average of four experiments); 0% with Trypanosoma rhodesiense [2] (setting [7]); 57% in the data set with Trypanosoma rhodesiense [2] (setting [8]). The “cure of Trypanosoma rhodesiense infection” value in the data set with Trypanosoma rhodesiense [2] (hydration plus disulfiram, cisplatin 3 mg/kg daily for seven days) was “effective in curing mice; also recorded: fully curative, and not merely palliative”; with Trypanosoma rhodesiense [2] (with hydration, 7-day regimen), “effective in curing mice”. The renal cortex findings result in data set [3] (cisplatin alone, necropsied on day 18 or later) was “multifocal accumulations of lymphoplasmacytic inflammatory cells with areas of tubular regeneration”. The early renal lesions entry in data set [3] (setting [9]) is “acute proximal and distal tubular necrosis”. Further, in data set [3] (setting [9]), the “lesions other than renal” value was “colonic and jejunal enteritis, and interstitial pneumonia with edema and vascular congestion”. Also, the “renal lesions (frequency)” value in data set [3] (setting [9]) was “highly common”. Also, the 30-Day survival in data set [4] (hydration + disulfiram (250 mg/kg orally), cisplatin 3 mg/kg/day i.p., 6 days) came out at 100%; in data set [4] (hydration + disulfiram (250 mg/kg orally), cisplatin 3 mg/kg/day i.p., 7 days, average of four experiments), 100%; in data set [4] (no hydration, 3 mg/kg/day i.p., 5 days) it was 100%; in data set [4] (no hydration, 3 mg/kg/day i.p., 6 days), 10%; in data set [4] (setting [7]), 0%; in data set [4] (with hydration, 3 mg/kg/day i.p., 6 days), 100%. The compound further had a 30-Day survival in data set [4] (setting [8]) of 90%. In addition, the “mortality from cisplatin administration” value in data set [4] (hydration with or without disulfiram) was “ameliorated by hydration, with or without use of disulfiram”. Further, in the data set on Trypanosoma rhodesiense [5] (cisplatin alone, 3 mg/kg/day, 5 days), the “clearance of trypanosomes from bloodstream” value was “failed to clear the bloodstream of trypanosomes”. In addition, the “clearance of trypanosomes from blood” value in the data set on Trypanosoma rhodesiense [5] (setting [10]) is listed as “temporarily cleared of trypanosomes; also recorded: Blood of all mice was cleared of trypanosones”; in the data set with Trypanosoma rhodesiense [5] (no hydration, 3 mg/kg/day, 7 days) it was “Blood of all mice was cleared of trypanosones”; with Trypanosoma rhodesiense [5] (setting [11]) it was “Blood of all mice was cleared of trypanosones”; in the data set on Trypanosoma rhodesiense [5] (with hydration, 3 mg/kg/day, 7 days) it was “Blood of all mice was cleared of trypanosones”. For the same compound, the relapse of parasitemia entry is given as “relapses of parasitemia occurred; also recorded: Relapse of parasitemia” with Trypanosoma rhodesiense [5] (setting [10]) and “Relapse of parasitemia” with Trypanosoma rhodesiense [5] (setting [11]). Besides, in the data set with Trypanosoma rhodesiense [5] (some animals, hydration + disulfiram, cisplatin 6 daily doses), the “time of relapse after the last doses” value is 6 to 14 days. The “trypanosome infection in recipient mice after subinoculation of tissues of survivors” value in the data set on Trypanosoma rhodesiense [6] was “did not produce the trypanosomiasis in the recipient mice; also recorded: No recipient mice developed trypanosome infection”.
On to `CCN(CC)C(=S)SSC(=S)N(CC)CC` [Disulfiram, bis-(diethylthiocarbamoyl) disulfide], for which, in the data set with Trypanosoma rhodesiense [2] (disulfiram alone, model test system), the “anti-trypanosomal activity of disulfiram alone” value is reported as “lack anti-trypanosomal activity”. Also, the “cure, survival and damage” value with Trypanosoma rhodesiense [2] is “effected cures of the infection with very good survival and little damage to test animals”. Further, the “protection from toxic effects of cisplatin” value in data set [3] (oral disulfiram given with cisplatin) was “protected the kidneys and gastrointestinal tracts from the toxic effects”.
In the case of `CCN(CC)C(=S)S` [diethyl dithiocarbamate], the “cure, survival and damage” value in the data set on Trypanosoma rhodesiense [2] was “effected cures of the infection with very good survival and little damage to test animals”.

(Values after patent US4532122A, “Anti-trypanosomal activity of platinum co-ordination compounds” (The United States of America as represented by the …, priority 1981, dated 1985).)
